Data from patent publication US8030494B2, “Optical recording material” (Adeka Corporation, priority 2006, dated 2011).

Experiment: Evaluation of light resistance (absorbance retention of spin-coated film after irradiation)
Assay type: physicochemical
Conditions: film spin-coated from 1% by mass 2,2,3,3-tetrafluoropropanol solution on polycarbonate plate; 55000 lux light for 100 hours; at λmax before irradiation
Protocol: The compounds obtained in Preparation Examples 1 to 8 and comparative compound No. 2 were evaluated for light resistance as follows. Each of the compounds was dissolved in 2,2,3,3-tetrafluoropropanol to prepare a 1% by mass solution. The solution was applied to a 20 mm by 20 mm polycarbonate plate by spin coating at 2000 rpm for 60 seconds to prepare a specimen. The specimen was irradiated with 55000 lux light for 100 hours. The UV absorption spectra measured before and after the irradiation were compared to calculate an absorbance retention at the λmax of the UV absorption spectrum before the irradiation.

Absorbance Retention (%): 0%
Structure (SMILES): C[N+]1=C(/C=C/c2ccccc2)C(C)(Cc2ccccc2)c2c1ccc1ccccc21 (stereo not shown) [comparative compound No. 2]
